Data on two molecules can be found in US6432984B1, “Pyrazolecarboxylic acid derivatives, their preparation, pharmaceutical compositions containing them” (Sanofi-Synthelabo, priority 1999, dated 2002).

Assay [1] concerns the target T1, CB1 cannabinoid receptors (Homo sapiens, UniProt P21554). The assay can be described thus: in vitro affinity for CB1 cannabinoid receptors (conditions of Devane et al.).
For assay [2], the system named is hypothermia induced with a cannabinoid receptor agonist (WIN 55212-2). The experiment in a line: antagonism of the hypothermia induced with WIN 55212-2. Type of assay: in vivo. As to conditions: mice; for ED50: Mus musculus, oral, WIN 55212-2 induced hypothermia; for Duration of action, 24 h, oral dose 1 mg/kg: oral dose 1 mg/kg. The text has this:
In this test, the activity and the duration of action of 3 compounds were compared.

Assay [3] has as its target T2, CB1 receptors present in the brain (Mus musculus, UniProt P47746).
T2 construct: from tissue; host or cells: mouse brain
The experiment in a line: duration of occupation of the CB1 receptors present in the brain, in vivo after oral administration. As to conditions: mice, oral 10 mg/kg; for % of occupation of the receptors, 1 hour: 1 hour after administration; for % of occupation of the receptors, 24 hours: 24 hours after administration. An excerpt: Moreover, the duration of occupation of the CB1 receptors present in the brain by the 3 compounds below was compared: […]

In assay [4] the target is T1, CB1 cannabinoid receptors. The experiment in a line: models of adenylate-cyclase inhibition. In kind it is biochemical. As to conditions: as described in Rinaldi-Carmona et al. 1996. An excerpt:
More particularly, the compound of the present invention, in its native form or in the form of one of its pharmaceutically acceptable salts, is a powerful and selective antagonist of the CB1 cannabinoid receptors.

T1 sequence (P21554 whole entry): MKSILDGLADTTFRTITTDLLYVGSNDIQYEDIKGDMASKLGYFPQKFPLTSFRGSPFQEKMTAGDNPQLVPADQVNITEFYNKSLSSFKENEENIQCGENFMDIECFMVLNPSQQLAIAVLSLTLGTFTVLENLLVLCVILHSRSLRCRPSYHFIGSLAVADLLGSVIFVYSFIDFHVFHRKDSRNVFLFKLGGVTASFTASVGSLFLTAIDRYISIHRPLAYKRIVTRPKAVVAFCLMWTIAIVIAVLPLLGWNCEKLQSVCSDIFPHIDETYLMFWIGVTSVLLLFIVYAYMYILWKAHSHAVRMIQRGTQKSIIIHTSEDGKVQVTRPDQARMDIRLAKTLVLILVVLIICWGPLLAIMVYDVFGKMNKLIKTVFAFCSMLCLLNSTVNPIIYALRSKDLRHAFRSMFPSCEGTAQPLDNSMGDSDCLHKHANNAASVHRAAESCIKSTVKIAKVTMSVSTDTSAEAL
T2 sequence (P47746 whole entry): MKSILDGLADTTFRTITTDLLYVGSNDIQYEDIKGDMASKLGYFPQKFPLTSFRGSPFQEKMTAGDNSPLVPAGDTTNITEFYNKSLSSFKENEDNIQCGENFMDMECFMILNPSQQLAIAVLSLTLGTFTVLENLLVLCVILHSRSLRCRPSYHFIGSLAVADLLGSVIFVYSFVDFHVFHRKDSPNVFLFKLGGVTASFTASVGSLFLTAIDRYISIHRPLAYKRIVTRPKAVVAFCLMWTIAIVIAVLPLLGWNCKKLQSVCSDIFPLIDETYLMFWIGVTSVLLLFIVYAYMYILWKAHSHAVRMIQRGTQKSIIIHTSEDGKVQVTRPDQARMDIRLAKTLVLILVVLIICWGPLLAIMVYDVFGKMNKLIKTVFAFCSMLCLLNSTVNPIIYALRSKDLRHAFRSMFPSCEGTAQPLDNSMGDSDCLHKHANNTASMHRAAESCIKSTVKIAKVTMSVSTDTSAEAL

The molecule `Cc1c(C(=O)NN2CCCCC2)nn(-c2ccc(Cl)cc2Cl)c1-c1ccc(Br)cc1` [Compound A, reference compound] returned a Ki in assay [1] of 8 nM. The molecule also gave a median effective dose (ED50) in assay [2] of 0.3 mg/kg. Moreover, in assay [2] (24 h after administration), the “Duration of action, 24 h, oral dose 1 mg/kg” value is listed as “not active”. The “Duration of action, 24 h, oral dose 10 mg/kg” value in assay [2] (oral dose 10 mg/kg, 24 h after administration) was “active”. In assay [3], the “% of occupation of the receptors, 1 hour” value came out at 89% and the “% of occupation of the receptors, 24 hours” value turned out to be 4%.

For the molecule `CCc1c(C(=O)NN2CCCCC2)nn(-c2ccc(Cl)cc2Cl)c1-c1ccc(Br)cc1` [Compound of formula (I), N-piperidino-5-(4-bromophenyl)-1-(2,4-dichlorophenyl)-4-ethylpyrazole-3-carboxamide], in assay [1], the Ki came to 5.4 nM. The ED50 in assay [2] worked out at 0.3 mg/kg. Also, the “Duration of action, 24 h, oral dose 1 mg/kg” value in assay [2] (24 h after administration) is “active”. Further, the “antagonist nature in models of adenylate-cyclase inhibition” value in assay [4] is listed as “antagonist”. In addition, in assay [3], the “% of occupation of the receptors, 1 hour” value was found to be 82%. Moreover, the “% of occupation of the receptors, 24 hours” value in assay [3] (10 mg/kg) was 44%; in assay [3] (listed as compound of formula (I), 10 mg/kg) it was 44%.
